In brackets after ≈: the same amount, converted by molar mass.
Legend:
[1] = Solubility of celecoxib in HBSS (centrifugation, HPLC of supernatant); format: physicochemical; conditions: Hank's Balanced Salt Solution (HBSS), aqueous buffer, thermodynamic from solid, 37° C., 2 h mixing, API/excipient 1/5, total dispersed API 1,000 μg/mL, 16,000 g 10 min, read-out: water solubility of celecoxib (concentration in supernatant)
Experimental: FIG. 8 provides a graph showing the solubility of celecoxib when incorporated with OHPP, HPMCAS, and Soluplus, as compared with that of celecoxib alone. The ratios between celecoxib and each excipient was 1/5, with total dispersed API of 1,000 μg/mL in HBSS buffer (37° C.). The mixing time was 2 h before subjecting the dispersion to centrifugation to collect supernatant for celecoxib quantification. The weight ratio of celecoxib, OHPP, and HPMCAS was 1, 3, and 2 respectively for the Cel-OHPP-HPMCAS preparation.
Thereafter, the dispersions were centrifuged at 16,000 g for 10 min, and the supernatants were collected for celecoxib quantification using HPLC. The concentration of celecoxib in the supernatant was considered as its water solubility.

physchem = format: physicochemical
Experimental: (§1) FIG. 7 provides a graph showing the solubility of curcumin when incorporated with OHPP, HPMCAS, and Soluplus, as compared with that of curcumin alone. The ratio between curcumin and excipient was 1/9, with total dispersed curcumin of 1,000 μg/mL in HBSS buffer (37° C.). The mixing time was 2 h before subjecting the dispersion to centrifugation to collect supernatant for curcumin quantification.
Thereafter, the dispersions were centrifuged at 16,000 g for 10 min, and the supernatants were collected for curcumin quantification using HPLC. The concentration of curcumin in the supernatant was considered as its water solubility.

[2] = Solubility of docetaxel in HBSS (centrifugation, HPLC of supernatant); format: physicochemical; conditions: Hank's Balanced Salt Solution (HBSS), aqueous buffer, thermodynamic from solid, 20° C., 10 min vortex, API/excipient 1/3, total dispersed API 2,500 μg/mL, 16,000 g 10 min, read-out: water solubility of docetaxel (concentration in supernatant)
Experimental: as §1, with “5” for “7”, “docetaxel” for “curcumin”, “1/3,” for “1/9,”, “2,500” for “1,000”, “(20°” for “(37°”, “10 min” for “2 h”
Thereafter, the dispersions were centrifuged at 16,000 g for 10 min, and the supernatants were collected for docetaxel quantification using HPLC. The concentration of docetaxel in the supernatant was considered as its water solubility.

[3] = Solubility of griseofulvin in HBSS (centrifugation, HPLC of supernatant); format: physicochemical; conditions: Hank's Balanced Salt Solution (HBSS), aqueous buffer, thermodynamic from solid, 37° C., 2 h mixing, API/excipient 1/3, total dispersed API 2,500 μg/mL, 16,000 g 10 min, read-out: water solubility of griseofulvin (concentration in supernatant)
Experimental: The mixing time was 2 h before subjecting the dispersion to centrifugation to collect supernatant for griseofulvin quantification.
Thereafter, the dispersions were centrifuged at 16,000 g for 10 min, and the supernatants were collected for griseofulvin quantification using HPLC. The concentration of griseofulvin in the supernatant was considered as its water solubility.

[4] = Solubility of itraconazole in HBSS (centrifugation, HPLC of supernatant); format: physicochemical; conditions: Hank's Balanced Salt Solution (HBSS), aqueous buffer, thermodynamic from solid, 20° C., 10 min vortex, API/excipient 1/3, total dispersed API 2,500 μg/mL, 16,000 g 10 min, read-out: water solubility of itraconazole (concentration in supernatant)
Experimental: as §1, with “6” for “7”, “itraconazole” for “curcumin”, “1/3,” for “1/9,”, “2,500” for “1,000”, “(20°” for “(37°”, “10 min” for “2 h”
Thereafter, the dispersions were centrifuged at 16,000 g for 10 min, and the supernatants were collected for itraconazole quantification using HPLC. The concentration of itraconazole in the supernatant was considered as its water solubility.

[5] = Solubility of niclosamide in HBSS (centrifugation, HPLC of supernatant); format: physicochemical; conditions: Hank's Balanced Salt Solution (HBSS), aqueous buffer, thermodynamic from solid, 37° C., 2 h mixing, API/excipient 1/3, total dispersed API 2,500 μg/mL, 16,000 g 10 min, read-out: water solubility of niclosamide (concentration in supernatant)
Experimental: FIG. 2 provides a graph showing the solubility of niclosamide when incorporated with OHPP, HPMCAS, and Soluplus (Soluplus®, BASF), as compared with that of niclosamide alone. The ratio between niclosamide and excipient was 1/3, with total dispersed API of 2,500 μg/mL in HBSS buffer (37° C.). The mixing time was 2 h before subjecting the dispersion to centrifugation to collect supernatant for API quantification.
Thereafter, the dispersions were centrifuged at 16,000 g for 10 min, and the supernatants were collected for niclosamide quantification using HPLC. The concentration of niclosamide in the supernatant was considered as its water solubility.

[6] = Solubility of paclitaxel in HBSS (centrifugation, HPLC of supernatant); format: physicochemical; conditions: Hank's Balanced Salt Solution (HBSS), aqueous buffer, thermodynamic from solid, 37° C., 2 h mixing, API/excipient 1/3, total dispersed API 2,500 μg/mL, 16,000 g 10 min, read-out: water solubility of paclitaxel (concentration in supernatant)
Experimental: The mixing time was 2 h before subjecting the dispersion to centrifugation to collect supernatant for paclitaxel quantification.
Thereafter, the dispersions were centrifuged at 16,000 g for 10 min, and the supernatants were collected for paclitaxel quantification using HPLC. The concentration of paclitaxel in the supernatant was considered as its water solubility.

Experimental for Caco-2 cell monolayer: Nic-1000 and Nic-100: supernatant from centrifuged dispersion of pure niclosamide in HBSS at dispersing dose of 1000 and 100 μg/mL, respectively. Cel-1000 and Cel-100: supernatant from centrifuged dispersion of pure celecoxib in HBSS at dispersing dose of 1000 and 100 μg/mL, respectively. Nic-OHPP-100: supernatant from centrifuged dispersion of Nic-OHPP in HBSS at dispersing dose of 100 μg/mL (for pure niclosamide). Cel-OHPP-HPMCAS-100: supernatant of Cel-OHPP-HPMCAS dispersed in HBSS buffer at 100 μg/mL.
Caco-2 cells were seeded in the inserts with tissue-culture-treated polyester membranes (Transwells, 0.4 μm pore size, Corning) at a density of 1×10^4 cells/well. After seeding, the medium was changed every other day until the day of the permeation test. All tests were performed on day 21 after seeding. For the test, the culture medium was removed and the cells were washed twice with PBS buffer. The cells were then equilibrated in HBSS for 15 min prior to each study, and then apical and basolateral solution were aspirated.
To measure the apical-to-basolateral permeation of API, 0.5 mL of each test solution was added to the apical compartment, and the basolateral compartment received 1.5 mL HBSS. As a control, reference cells were incubated with 0.5 mL blank HBSS on the apical side, while the basolateral side received 1.5 mL of HBSS. All cultures were incubated in an incubator (5% CO2, 37° C.) for 2 h. After the incubation, the apical and the basolateral solutions were collected respectively and their amounts of API were determined using HPLC.
The loaded dispersions were prepared in two steps: (1) dispersing API-excipient complex solid and API alone in HBSS at the doses of 1000 μg/mL or 100 μg/mL, and (2) subjecting each dispersion to centrifugation (16,000 g, 5 min) to collect supernatant. The supernatants were loaded in the apical compartments of inserts.

In the case of Cc1ccc(-c2cc(C(F)(F)F)nn2-c2ccc(S(N)(=O)=O)cc2)cc1 [celecoxib], the “permeation of API through Caco-2 monolayer, API alone” value (Caco-2 cell monolayer) is reported as “not sufficient to provide an appreciable permeation” and the solubility at 2 h [1] is reported as ~12.8 µg/mL.
Work on COc1cc(/C=C/C(=O)CC(=O)/C=C/c2ccc(O)c(OC)c2)ccc1O [curcumin] yielded a solubility at 2 h (physchem; 37 °C, aqueous buffer, thermodynamic from solid) of ~7.2 µg/mL (≈ 19.5 µM).
With CC(=O)O[C@@]12CO[C@@H]1C[C@H](O)[C@@]1(C)C(=O)[C@H](O)C3=C(C)[C@@H](OC(=O)[C@H](O)[C@@H](NC(=O)OC(C)(C)C)c4ccccc4)C[C@@](O)([C@@H](OC(=O)c4ccccc4)[C@H]21)C3(C)C [docetaxel] the solubility at 10 min [2] was ~11.1 µg/mL.
With COC1=CC(=O)C[C@@H](C)[C@]12Oc1c(Cl)c(OC)cc(OC)c1C2=O [griseofulvin] the solubility at 2 h [3] was ~17.5 µg/mL.
With CCC(C)n1ncn(-c2ccc(N3CCN(c4ccc(OCC5COC(Cn6cncn6)(c6ccc(Cl)cc6Cl)O5)cc4)CC3)cc2)c1=O (centres unmarked) [itraconazole] the solubility at 10 min [4] was ~0.96 µg/mL.
For O=C(Nc1ccc([N+](=O)[O-])cc1Cl)c1cc(Cl)ccc1O [niclosamide], the “permeation of API through Caco-2 monolayer, API alone” value (Caco-2 cell monolayer) was “not sufficient to provide an appreciable permeation” and the solubility at 2 h [5] was ~13.2 µg/mL.
With CC(=O)O[C@H]1C(=O)[C@@]2(C)[C@H]([C@H](OC(=O)c3ccccc3)[C@]3(O)C[C@H](OC(=O)[C@H](O)[C@@H](NC(=O)c4ccccc4)c4ccccc4)C(C)=C1C3(C)C)[C@]1(OC(C)=O)CO[C@@H]1C[C@@H]2O [paclitaxel] the solubility at 2 h [6] was ~6.2 µg/mL.
For “octenylsuccinate hydroxypropyl phytoglycogen [OHPP]”, the “permeation of API through Caco-2 monolayer when OHPP was used” value (Caco-2 cell monolayer) was “substantially increased” and the “increase of the solubility of curcumin in aqueous solution by use of OHPP” value (physchem) was “at least 100 times”.

Source: patent US10653784B2, “Hydrophobic highly branched carbohydrate polymers” (Purdue Research Foundation, priority 2015, dated 2020)
